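Tested at 5 concentrations; 48 h exposure; 96-well plates; endpoints linearly interpolated, else capped at highest concentration. Abbreviation: GI50, concentration required for 50% inhibition of growth.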 Active and inactive are the calls of the source. Cut-off read from the data, not from the text of the source: active = GI50 up to about 1.1 µM and inactive = higher.
Experiments:
Assay in all cases: inhibition of tumour cell growth, NCI panel, 48 h
786-0 = system: 786-0
A498 = system: A498
A549 = system: A549
ACHN = system: ACHN
BT-549 = system: BT-549
CAKI-1 = system: CAKI-1
CCRF-CEM = system: CCRF-CEM
COLO 205 = system: COLO 205
DU-145 = system: DU-145
EKVX = system: EKVX
HCC 2998 = system: HCC 2998
HCT-116 = system: HCT-116
HCT-15 = system: HCT-15
HL-60 = system: HL-60
HOP-62 = system: HOP-62
HOP-92 = system: HOP-92
HT-29 = system: HT-29
Hs-578T = system: Hs-578T
IGROV-1 = system: IGROV-1
KM12 = system: KM12
M14 = system: M14
MCF7 = system: MCF7
MDA-MB-231 = system: MDA-MB-231
MDA-MB-435 = system: MDA-MB-435
MDA-N = system: MDA-N
MOLT-4 = system: MOLT-4
Malme-3M = system: Malme-3M
NCI-H226 = system: NCI-H226
NCI-H23 = system: NCI-H23
NCI-H460 = system: NCI-H460
NCI-H522 = system: NCI-H522
NCI/ADR-RES = system: NCI/ADR-RES
OVCAR-3 = system: OVCAR-3
OVCAR-4 = system: OVCAR-4
OVCAR-5 = system: OVCAR-5
OVCAR-8 = system: OVCAR-8
PC-3 = system: PC-3
RPMI-8226 = system: RPMI-8226
RXF 393 = system: RXF 393
SF-268 = system: SF-268
SF-295 = system: SF-295
SK-MEL-28 = system: SK-MEL-28
SK-MEL-2 = system: SK-MEL-2
SK-MEL-5 = system: SK-MEL-5
SK-OV-3 = system: SK-OV-3
SN12C = system: SN12C
SNB-19 = system: SNB-19
SNB-75 = system: SNB-75
SW-620 = system: SW-620
T47D = system: T47D
TK-10 = system: TK-10
U-251 = system: U-251
UACC-257 = system: UACC-257
UACC-62 = system: UACC-62
UO-31 = system: UO-31
K562 = system: K562
LOX IMVI = system: LOX IMVI
SF-539 = system: SF-539

C[C@]12CC[C@@H]3c4ccc(O)cc4CC[C@H]3[C@@H]1C/C(=C\c1ccncc1)[C@@H]2O
GI50 (786-0): 14.3 µM (inactive) | GI50 (A498): 5.78 µM (inactive) | GI50 (A549): 7.36 µM (inactive) | GI50 (ACHN): 11.2 µM (inactive) | GI50 (BT-549): 3.86 µM (inactive) | GI50 (CAKI-1): 12.8 µM (inactive) | GI50 (CCRF-CEM): 9.75 µM (inactive) | GI50 (COLO 205): 5.18 µM (inactive) | GI50 (DU-145): 19.1 µM (inactive) | GI50 (EKVX): 18.5 µM (inactive) | GI50 (HCC 2998): 7.96 µM (inactive) | GI50 (HCT-116): 10.9 µM (inactive) | GI50 (HCT-15): 4.22 µM | GI50 (HL-60): 8.51 µM (inactive) | GI50 (HOP-62): 14.8 µM (inactive) | GI50 (HOP-92): 5.32 µM (inactive) | GI50 (HT-29): 15.1 µM (inactive) | GI50 (Hs-578T): 4.42 µM (inactive) | GI50 (IGROV-1): 7.43 µM (inactive) | GI50 (KM12): 5.98 µM (inactive) | GI50 (M14): 20.6 µM (inactive) | GI50 (MCF7): 10.1 µM (inactive) | GI50 (MDA-MB-231): 10.1 µM (inactive) | GI50 (MDA-MB-435): 2.92 µM (inactive) | GI50 (MDA-N): 3.99 µM (inactive) | GI50 (MOLT-4): 3.6 µM (inactive) | GI50 (Malme-3M): 5.04 µM (inactive) | GI50 (NCI-H226): 10.7 µM (inactive) | GI50 (NCI-H23): 3.1 µM (inactive) | GI50 (NCI-H460): 6.32 µM (inactive) | GI50 (NCI-H522): 3.73 µM (inactive) | GI50 (NCI/ADR-RES): 5.56 µM (inactive) | GI50 (OVCAR-3): 11.5 µM (inactive) | GI50 (OVCAR-4): 14.8 µM (inactive) | GI50 (OVCAR-5): 28.6 µM (inactive) | GI50 (OVCAR-8): 11.4 µM (inactive) | GI50 (PC-3): 10.4 µM (inactive) | GI50 (RPMI-8226): 3.13 µM (inactive) | GI50 (RXF 393): 2.5 µM (inactive) | GI50 (SF-268): 8.55 µM (inactive) | GI50 (SF-295): 4.29 µM (inactive) | GI50 (SK-MEL-28): 22.3 µM (inactive) | GI50 (SK-MEL-2): 11.4 µM (inactive) | GI50 (SK-MEL-5): 4.18 µM (inactive) | GI50 (SK-OV-3): 26.2 µM (inactive) | GI50 (SN12C): 26.9 µM (inactive) | GI50 (SNB-19): 23.4 µM (inactive) | GI50 (SNB-75): 2.98 µM (inactive) | GI50 (SW-620): 9.27 µM (inactive) | GI50 (T47D): 3.55 µM (inactive) | GI50 (TK-10): 22.9 µM (inactive) | GI50 (U-251): 11.8 µM (inactive) | GI50 (UACC-257): 14.5 µM (inactive) | GI50 (UACC-62): 10.8 µM (inactive) | GI50 (UO-31): 21.5 µM (inactive)

Cc1ccc(S(=O)(=O)N2CCCCN(S(=O)(=O)c3ccc(C)cc3)Cc3ccccc3OCCOCCOc3c4cccc3Cc3cccc5c3OCCOCCOc3ccccc3CN(S(=O)(=O)c3ccc(C)cc3)CCCN(S(=O)(=O)c3ccc(C)cc3)Cc3ccccc3OCCOCCOc3c(cccc3C4)Cc3cccc(c3OCCOCCOc3ccccc3C2)C5)cc1
GI50 (786-0): > 100 µM (inactive) | GI50 (A498): 53.2 µM (inactive) | GI50 (A549): > 100 µM (inactive) | GI50 (ACHN): > 100 µM (inactive) | GI50 (BT-549): > 100 µM (inactive) | GI50 (CAKI-1): > 100 µM (inactive) | GI50 (CCRF-CEM): > 100 µM (inactive) | GI50 (COLO 205): > 100 µM (inactive) | GI50 (DU-145): > 100 µM (inactive) | GI50 (EKVX): > 100 µM (inactive) | GI50 (HCC 2998): > 100 µM (inactive) | GI50 (HCT-116): > 100 µM (inactive) | GI50 (HCT-15): > 100 µM | GI50 (HOP-62): > 100 µM (inactive) | GI50 (HOP-92): > 100 µM (inactive) | GI50 (HT-29): > 100 µM (inactive) | GI50 (Hs-578T): > 100 µM (inactive) | GI50 (IGROV-1): > 100 µM (inactive) | GI50 (K562): > 100 µM (inactive) | GI50 (KM12): > 100 µM (inactive) | GI50 (LOX IMVI): > 100 µM (inactive) | GI50 (M14): > 100 µM (inactive) | GI50 (MCF7): > 100 µM (inactive) | GI50 (MDA-MB-231): > 100 µM (inactive) | GI50 (MDA-MB-435): > 100 µM (inactive) | GI50 (MDA-N): > 100 µM (inactive) | GI50 (MOLT-4): > 100 µM (inactive) | GI50 (Malme-3M): > 100 µM (inactive) | GI50 (NCI-H226): > 100 µM (inactive) | GI50 (NCI-H23): > 100 µM (inactive) | GI50 (NCI-H460): > 100 µM (inactive) | GI50 (NCI-H522): 78.9 µM (inactive) | GI50 (NCI/ADR-RES): > 100 µM (inactive) | GI50 (OVCAR-3): > 100 µM (inactive) | GI50 (OVCAR-4): > 100 µM (inactive) | GI50 (OVCAR-5): > 100 µM (inactive) | GI50 (OVCAR-8): > 100 µM (inactive) | GI50 (PC-3): > 100 µM (inactive) | GI50 (RPMI-8226): > 100 µM (inactive) | GI50 (RXF 393): > 100 µM (inactive) | GI50 (SF-268): > 100 µM (inactive) | GI50 (SF-295): > 100 µM (inactive) | GI50 (SF-539): > 100 µM (inactive) | GI50 (SK-MEL-2): > 100 µM (inactive) | GI50 (SK-MEL-5): > 100 µM (inactive) | GI50 (SK-OV-3): > 100 µM (inactive) | GI50 (SN12C): > 100 µM (inactive) | GI50 (SNB-19): > 100 µM (inactive) | GI50 (SNB-75): > 100 µM (inactive) | GI50 (SW-620): > 100 µM (inactive) | GI50 (T47D): > 100 µM (inactive) | GI50 (TK-10): > 100 µM (inactive) | GI50 (U-251): > 100 µM (inactive) | GI50 (UACC-257): > 100 µM (inactive) | GI50 (UACC-62): > 100 µM (inactive) | GI50 (UO-31): > 100 µM (inactive)

COc1ccc(C2C(C#N)=C(S)N(C3OC(COC(C)=O)C(OC(C)=O)C(OC(C)=O)C3OC(C)=O)C(c3ccccc3)=C2C(C)=O)cc1 (stereo unspecified)
GI50 (786-0): > 100 µM (inactive) | GI50 (A498): > 100 µM (inactive) | GI50 (A549): > 100 µM (inactive) | GI50 (ACHN): > 100 µM (inactive) | GI50 (BT-549): > 100 µM (inactive) | GI50 (CAKI-1): > 100 µM (inactive) | GI50 (CCRF-CEM): > 100 µM (inactive) | GI50 (COLO 205): > 100 µM (inactive) | GI50 (DU-145): > 100 µM (inactive) | GI50 (HCC 2998): > 100 µM (inactive) | GI50 (HCT-116): > 100 µM (inactive) | GI50 (HCT-15): > 100 µM | GI50 (HL-60): 63.8 µM (inactive) | GI50 (HOP-62): > 100 µM (inactive) | GI50 (HOP-92): > 100 µM (inactive) | GI50 (HT-29): > 100 µM (inactive) | GI50 (Hs-578T): 70.8 µM (inactive) | GI50 (IGROV-1): > 100 µM (inactive) | GI50 (K562): 37.5 µM (inactive) | GI50 (KM12): > 100 µM (inactive) | GI50 (LOX IMVI): > 100 µM (inactive) | GI50 (M14): > 100 µM (inactive) | GI50 (MCF7): 63 µM (inactive) | GI50 (MDA-MB-231): > 100 µM (inactive) | GI50 (MDA-MB-435): 33.6 µM (inactive) | GI50 (MDA-N): 58.5 µM (inactive) | GI50 (MOLT-4): 64.4 µM (inactive) | GI50 (Malme-3M): > 100 µM (inactive) | GI50 (NCI-H226): > 100 µM (inactive) | GI50 (NCI-H23): > 100 µM (inactive) | GI50 (NCI-H460): > 100 µM (inactive) | GI50 (NCI-H522): 61.4 µM (inactive) | GI50 (NCI/ADR-RES): > 100 µM (inactive) | GI50 (OVCAR-3): > 100 µM (inactive) | GI50 (OVCAR-4): > 100 µM (inactive) | GI50 (OVCAR-5): > 100 µM (inactive) | GI50 (OVCAR-8): > 100 µM (inactive) | GI50 (PC-3): > 100 µM (inactive) | GI50 (RPMI-8226): 92 µM (inactive) | GI50 (RXF 393): 78.9 µM (inactive) | GI50 (SF-268): > 100 µM (inactive) | GI50 (SF-295): > 100 µM (inactive) | GI50 (SF-539): 76.7 µM (inactive) | GI50 (SK-MEL-28): > 100 µM (inactive) | GI50 (SK-MEL-2): > 100 µM (inactive) | GI50 (SK-MEL-5): 53.7 µM (inactive) | GI50 (SN12C): > 100 µM (inactive) | GI50 (SNB-19): > 100 µM (inactive) | GI50 (SNB-75): 18.7 µM (inactive) | GI50 (T47D): 17.3 µM (inactive) | GI50 (TK-10): > 100 µM (inactive) | GI50 (U-251): > 100 µM (inactive) | GI50 (UACC-257): > 100 µM (inactive) | GI50 (UACC-62): 41.8 µM (inactive) | GI50 (UO-31): 21.6 µM (inactive)
